≈ marks a conversion by molar mass, not a printed value.
How the values were obtained:
[1] = Agonist activity at human calcitonin receptor expressed in BHK570 cells assessed as increase in intracellular cAMP concentration incubated for 3 hrs in absence of albumin by CRE luciferase reporter gene assay; assay type: cell-based; conditions: BHK570, 3 h
[2] = Dose normalized AUC in Sprague-Dawley rat at 10 nmol/kg, iv measured up to 96 hrs by LC-MS analysis; assay type: ADME, organism-based; conditions: in vivo
[3] = Solubility of the compound in lactate at pH 3 by UPLC analysis; assay type: physicochemical; conditions: lactate buffer
[4] = Solubility of the compound in lactate at pH 4 by UPLC analysis; assay type: physicochemical; conditions: lactate buffer
[5] = Half life in Sprague-Dawley rat at 10 nmol/kg, sc measured up to 96 hrs by LC-MS analysis; assay type: ADME, organism-based; conditions: in vivo
Rattus norvegicus [6] = assay: Reduction in food intake in Sprague-Dawley rat at 30 nmol/kg, sc administered as single dose measured after 24 to 48 hrs relative to control; assay type: functional; design: scale not given: the % may be the effect or the level left; conditions: time 24-48 hrs
[7] = Solubility of the compound in bis-tris propane at pH 7 by UPLC analysis; assay type: physicochemical; conditions: bis-tris propane buffer
[8] = Apparent volume of distribution in Sprague-Dawley rat at 10 nmol/kg, iv measured up to 96 hrs by LC-MS analysis; assay type: ADME, organism-based; conditions: in vivo, read-out: Vz
[9] = Agonist activity at human AMY3R (CT+RAMP3) expressed in Hollex1 cells incubated for 3 hrs by luminescence assay; assay type: cell-based; conditions: Hollex1, 3 h
[10] = Displacement of [125I]-amylin from rat AMY3R (CTR+RAMP3) expressed in BHK-13 cells measured after 120 mins by scintillation proximity assay; assay type: cell-based
Homo sapiens [11] = species on record: Homo sapiens; assay: Ratio of IC50 for displacement of [125I]-calcitonin from human calcitonin receptor expressed in tk-ts 13 cells to IC50 for displacement of [125I]-amylin from human AMY3R (CTR+RAMP3) expressed in BHK-13 cells; assay type: cell-based
[12] = Displacement of [125I]-calcitonin from rat calcitonin receptor expressed in tk-ts 13 cells measured after 120 mins by scintillation proximity assay; assay type: cell-based; conditions: tk-ts13
[13] = Bioavailability in Sprague-Dawley rat at 10 nmol/kg, sc measured up to 96 hrs by LC-MS analysis; assay type: ADME, organism-based; conditions: in vivo
[14] = Displacement of [125I]-amylin from human AMY3R (CTR+RAMP3) expressed in BHK-13 cells measured after 120 mins by scintillation proximity assay; assay type: cell-based
Homo sapiens [15] = species on record: Homo sapiens; assay: Ratio of EC50 for human calcitonin receptor expressed in BHK570 cells to EC50 for human AMY3R (CT+RAMP3) expressed in Hollex1 cells; assay type: cell-based
[16] = Solubility of the compound in bis-tris propane at pH 7.5 by UPLC analysis; assay type: physicochemical; conditions: bis-tris propane buffer
[17] = Agonist activity at rat calcitonin receptor expressed in BHK-13 cells assessed as increase in intracellular cAMP concentration incubated for 25 mins by CRE luciferase reporter gene assay; assay type: cell-based; conditions: BHK-13, 25 min
[18] = Agonist activity at rat AMY3R (CT+RAMP3) expressed in tk-ts13 cells assessed as increase in intracellular cAMP level incuabted for 25 mins by CRE luciferase reporter gene assay; assay type: cell-based; conditions: tk-ts13, 25 min
[19] = Solubility of the compound in bis-tris propane at pH 6.5 by UPLC analysis; assay type: physicochemical; conditions: bis-tris propane buffer
Rattus norvegicus [20] = species on record: Rattus norvegicus; assay: Ratio of IC50 for displacement of [125I]-calcitonin from rat calcitonin receptor expressed in tk-ts 13 cells to IC50 for displacement of [125I]-amylin from rat AMY3R (CTR+RAMP3) expressed in BHK-13 cells; assay type: cell-based
[21] = Solubility of the compound in bis-tris propane at pH 8 by UPLC analysis; assay type: physicochemical; conditions: bis-tris propane buffer
Rattus norvegicus [22] = assay: Reduction in food intake in Sprague-Dawley rat at 3 nmol/kg, sc administered as single dose measured upto 24 hrs relative to control; assay type: functional; design: scale not given: the % may be the effect or the level left; conditions: time hrs <=24
Insulin (Homo sapiens) [23] = molecular target: Insulin (Homo sapiens) (UniProt P01308); assay: Effect on insulin (unknown origin) amyloid fibril formation assessed as lag time in HEPES buffer at pH 7.5 measured after 45 hrs by thioflavin-T fluorescence assay
[24] = Half life in Sprague-Dawley rat at 10 nmol/kg, iv measured up to 96 hrs by LC-MS analysis; assay type: ADME, organism-based; conditions: in vivo
Insulin (Homo sapiens) [25] = molecular target: Insulin (Homo sapiens) (UniProt P01308); assay: Effect on insulin (unknown origin) amyloid fibril formation assessed as lag time in glycyl-glycine buffer at pH 4 measured after 45 hrs by thioflavin-T fluorescence assay
Rattus norvegicus [26] = species on record: Rattus norvegicus; assay: Ratio of EC50 for rat calcitonin receptor expressed in BHK-13 cells to EC50 for rat AMY3R (CT+RAMP3) expressed in tk-ts13 cells; assay type: cell-based
[27] = Solubility of the compound in lactate at pH 5 by UPLC analysis; assay type: physicochemical; conditions: lactate buffer
Rattus norvegicus [28] = assay: Reduction in food intake in Sprague-Dawley rat at 3 nmol/kg, sc administered as single dose measured after 24 to 48 hrs relative to control; assay type: functional; design: scale not given: the % may be the effect or the level left; conditions: time 24-48 hrs
Rattus norvegicus [29] = assay: Reduction in food intake in Sprague-Dawley rat at 30 nmol/kg, sc administered as single dose measured upto 24 hrs relative to control; assay type: functional; design: scale not given: the % may be the effect or the level left; conditions: time hrs <=24
[30] = Clearance in Sprague-Dawley rat at 10 nmol/kg, iv measured up to 96 hrs by LC-MS analysis; assay type: ADME, organism-based; conditions: in vivo
[31] = Solubility of the compound in bis-tris propane at pH 6 by UPLC analysis; assay type: physicochemical; conditions: bis-tris propane buffer
[32] = Displacement of [125I]-calcitonin from human calcitonin receptor expressed in tk-ts 13 cells measured after 120 mins by scintillation proximity assay; assay type: cell-based; conditions: tk-ts13
Insulin (Homo sapiens) [33] = molecular target: Insulin (Homo sapiens) (UniProt P01308); assay: Effect on insulin (unknown origin) amyloid fibril formation assessed as peptide recovery in glycyl-glycine buffer at pH 4 measured after 45 hrs by thioflavin-T fluorescence assay relative to control; design: concentration or dose not given beside the values
[34] = Dose normalized AUC in Sprague-Dawley rat at 10 nmol/kg, sc measured up to 96 hrs by LC-MS analysis; assay type: ADME, organism-based; conditions: in vivo
Insulin (Homo sapiens) [35] = molecular target: Insulin (Homo sapiens) (UniProt P01308); assay: Effect on insulin (unknown origin) amyloid fibril formation assessed as peptide recovery in HEPES buffer at pH 7.5 measured after 45 hrs by thioflavin-T fluorescence assay relative to control

Insulin (Homo sapiens), sequence (P01308 whole entry): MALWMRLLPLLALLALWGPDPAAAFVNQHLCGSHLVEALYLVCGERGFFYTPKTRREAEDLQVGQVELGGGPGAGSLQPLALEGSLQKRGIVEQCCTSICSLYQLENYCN

EC50 [1]: 62 pM | AUC/dose [2]: 266 kg·h/L | solubility [3]: 200 µM (≈ 882 µg/mL) | solubility [4]: 200 µM (≈ 882 µg/mL) | half-life [5]: 27 h | solubility [7]: 200 µM (≈ 882 µg/mL) | Vd [8]: 0.109 L/kg | EC50 [9]: 49 pM | IC50 [10]: 520 pM | IC50 [12]: 681 pM | bioavailability [13]: 30% | IC50 [14]: 170 pM | solubility [16]: 200 µM (≈ 882 µg/mL) | EC50 [17]: 287 pM | EC50 [18]: 348 pM | solubility [19]: 200 µM (≈ 882 µg/mL) | solubility [21]: 200 µM (≈ 882 µg/mL) | TIME (Insulin (Homo sapiens) [23]): 41 h | half-life [24]: 20 h | TIME (Insulin (Homo sapiens) [25]): 45 h | solubility [27]: 200 µM (≈ 882 µg/mL) | clearance [30]: 3.77 mL/h/kg | solubility [31]: 200 µM (≈ 882 µg/mL) | IC50 [32]: 223 pM | Activity (Insulin (Homo sapiens) [33]): 96% | AUC/dose [34]: 87 kg·h/L | Activity (Insulin (Homo sapiens) [35]): 76%
Structure (SMILES): CC[C@H](C)[C@H](NC(=O)[C@@H]1CCCN1C(=O)CNC(=O)[C@H](Cc1ccccc1)NC(=O)[C@H](CC(N)=O)NC(=O)[C@H](CC(N)=O)NC(=O)[C@H](CO)NC(=O)[C@H](CO)NC(=O)[C@H](Cc1c[nH]cn1)NC(=O)[C@H](CCCNC(=N)N)NC(=O)[C@H](CC(C)C)NC(=O)[C@H](Cc1ccccc1)NC(=O)[C@H](CCC(=O)O)NC(=O)[C@H](C)NC(=O)[C@H](CC(C)C)NC(=O)[C@H](CCCNC(=N)N)NC(=O)[C@H](CCC(N)=O)NC(=O)[C@@H](NC(=O)[C@H](C)NC(=O)[C@@H]1CSSC[C@H](NC(=O)[C@H](CCCCN)NC(=O)CC[C@H](NC(=O)CCCCCCCCCCCCCCCCCCC(=O)O)C(=O)O)C(=O)N[C@@H](CC(N)=O)C(=O)N[C@@H]([C@@H](C)O)C(=O)N[C@@H](C)C(=O)N[C@@H]([C@@H](C)O)C(=O)N1)[C@@H](C)O)C(=O)N[C@@H](CC(C)C)C(=O)N1CCC[C@H]1C(=O)N1CCC[C@H]1C(=O)N[C@H](C(=O)N[C@@H](CC(N)=O)C(=O)N[C@H](C(=O)NCC(=O)N[C@@H](CO)C(=O)N[C@@H](CC(N)=O)C(=O)N[C@H](C(=O)N1CCC[C@H]1C(N)=O)[C@@H](C)O)C(C)C)[C@@H](C)O
Activity (Rattus norvegicus [6]): 84% | Ratio IC50 (Homo sapiens [11]): 1 | Ratio EC50 (Homo sapiens [15]): 1 | Ratio IC50 (Rattus norvegicus [20]): 1 | Activity (Rattus norvegicus [22]): 40% | Ratio EC50 (Rattus norvegicus [26]): 1 | Activity (Rattus norvegicus [28]): 29% | Activity (Rattus norvegicus [29]): 85%
